Laboratory results: ChEMBL document CHEMBL3872220, “Amphiphilic xanthones as a potent chemical entity of anti-mycobacterial agents with membrane-targeting properties” (Eur J Med Chem, 2016)
Converted amounts (≈) assume the structure as drawn.

Test system: Mycobacterium tuberculosis variant bovis
Test: Antimycobacterial activity against Mycobacterium bovis BCG ATCC 35734 after 5 days by broth dilution assay
Type: functional
Details: ATCC 35734, 120 h

| SMILES | MIC90 [µM] |
| --- | --- |
| COc1c(OCC(O)CNCCN)cc2oc3cc(OCC(O)CNCCN)c(CC=C(C)C)c(O)c3c(=O)c2c1CC=C(C)C (centres undefined) | > 30 |
| CC[C@@H](CO)NCCN[C@@H](CC)CO [ETHAMBUTOL] | 6.25 (≈ 1.28 µg/mL) |
| CCCCN(CC)CCCCOc1cc2oc3cc(OCCCCN(CC)CCCC)c(OC)c(CC=C(C)C)c3c(=O)c2c(O)c1CC=C(C)C | 3.2 (≈ 2.31 µg/mL) |
| CCN(CC)CCCCOc1cc2oc3cc(OCCCCN(CC)CC)c(OC)c(CCC(C)C)c3c(=O)c2c(O)c1CCC(C)C | 6.4 (≈ 4.28 µg/mL) |
| COc1c(OCCCCN2CCOCC2)cc2oc3cc(OCCCCN4CCOCC4)c(CC=C(C)C)c(OCCCCN4CCOCC4)c3c(=O)c2c1CC=C(C)C | 12.8 (≈ 10.7 µg/mL) |
| COC(=O)C(Cc1cnc[nH]1)NC(=O)COc1cc2oc3cc(OCC(=O)NC(Cc4cnc[nH]4)C(=O)OC)c(OC)c(CC=C(C)C)c3c(=O)c2c(O)c1CC=C(C)C (centres undefined) | > 30 |
| CCN(CC)CCCOc1cc2oc3cc(OCCCN(CC)CC)c(OC)c(CC=C(C)C)c3c(=O)c2c(O)c1CC=C(C)C | 6.4 (≈ 4.08 µg/mL) |
| CO[C@H]1/C=C/O[C@@]2(C)Oc3c(C)c(O)c4c(O)c(c(/C=N/N5CCN(C)CC5)c(O)c4c3C2=O)NC(=O)/C(C)=C\C=C\[C@H](C)[C@H](O)[C@@H](C)[C@@H](O)[C@@H](C)[C@H](OC(C)=O)[C@@H]1C [RIFAMPIN] | 0.02 (≈ 0.0165 µg/mL) |
| COc1c(OCC(O)CNC(CO)(CO)CO)cc2oc3cc(OCC(O)CNC(CO)(CO)CO)c(CC=C(C)C)c(O)c3c(=O)c2c1CC=C(C)C (centres undefined) | > 30 |
| CCN(CC)CCCCOc1ccc2c(=O)c3c(O)cc(OCCCCN(CC)CC)cc3oc2c1 | > 30 |
| COc1c(OCCCCN(C)C)cc2oc3cc(OCCCCN(C)C)c(CCC(C)C)c(O)c3c(=O)c2c1CCC(C)C | 6.4 (≈ 3.92 µg/mL) |
| COc1c(OCC(=O)NC(CCCNC(=N)N)C(N)=O)cc2oc3cc(OCC(=O)NC(CCCNC(=N)N)C(N)=O)c(CC=C(C)C)c(O)c3c(=O)c2c1CC=C(C)C (centres undefined) | > 30 |
| CCCN(CCC)CC(O)COc1cc2oc3cc(OCC(O)CN(CCC)CCC)c(OC)c(CC=C(C)C)c3c(=O)c2c(O)c1CC=C(C)C (centres undefined) | 6.4 (≈ 4.64 µg/mL) |
| COc1c(OCCCCN2CCSCC2)cc2oc3cc(OCCCCN4CCSCC4)c(CC=C(C)C)c(O)c3c(=O)c2c1CC=C(C)C | 30 (≈ 21.8 µg/mL) |
| CCN(CC)CCCCCCCOc1cc2oc3cc(OCCCCCCCN(CC)CC)c(OC)c(CC=C(C)C)c3c(=O)c2c(O)c1CC=C(C)C | 6.4 (≈ 4.79 µg/mL) |
| CCN(CC)CCOc1cc2oc3cc(OCCN(CC)CC)c(OC)c(CC=C(C)C)c3c(=O)c2c(O)c1CC=C(C)C | 6.4 (≈ 3.9 µg/mL) |
| CN[C@@H]1[C@H](O[C@H]2[C@H](O[C@H]3[C@H](O)[C@@H](O)[C@H](N=C(N)N)[C@@H](O)[C@@H]3N=C(N)N)O[C@@H](C)[C@]2(O)C=O)O[C@@H](CO)[C@H](O)[C@H]1O [STREPTOMYCIN] | 0.39 (≈ 0.227 µg/mL) |
| COc1c(OCC(O)CNCCNCCNCCN)cc2oc3cc(OCC(O)CNCCNCCNCCN)c(CC=C(C)C)c(O)c3c(=O)c2c1CC=C(C)C (centres undefined) | > 30 |
| CCN(CC)CCCCOc1cc2oc3cc(OCCCCN(CC)CC)c(OC)c(CC=C(C)C)c3c(=O)c2c(OCCCCN(CC)CC)c1CC=C(C)C | 6.4 (≈ 5.07 µg/mL) |
| COc1c(OCC(O)CNCCNC(=N)N)cc2oc3cc(OCC(O)CNCCNC(=N)N)c(CC=C(C)C)c(O)c3c(=O)c2c1CC=C(C)C (centres undefined) | > 30 |
| COC(=O)C(CCCNC(=N)N)NC(=O)COc1cc2oc3cc(OCC(=O)NC(CCCNC(=N)N)C(=O)OC)c(OC)c(CC=C(C)C)c3c(=O)c2c(O)c1CC=C(C)C (centres undefined) | 12.8 (≈ 11.1 µg/mL) |
| NNC(=O)c1ccncc1 [ISONIAZID] | 6.25 (≈ 0.857 µg/mL) |
| CCN(CC)CC(O)COc1cc2oc3cc(OCC(O)CN(CC)CC)c(OC)c(CC=C(C)C)c3c(=O)c2c(O)c1CC=C(C)C (centres undefined) | 6.4 (≈ 4.28 µg/mL) |

Test system: Mycobacterium tuberculosis variant bovis
Test: Bactericidal activity against Mycobacterium bovis BCG ATCC 35734 assessed as log reduction in bacterial colonies up to 8 times MIC measured after 24 hrs by time-kill assay
Type: functional, Mycobacterium tuberculosis variant bovis BCG
Details: not given

| SMILES | Activity |
| --- | --- |
| NNC(=O)c1ccncc1 [ISONIAZID] | 2.6 |
